Where two headings read alike, the source gives them in different places.
What was measured:
[1] = tested on: VIOSS: wild pansy (Viola tricolor), field violet (Viola arvensis); assay: Post-emergent Test III, herbicidal activity in wheat and barley; type: in vivo; details: for GR50 VIOSS: dose for 50 percent growth reduction; for GR50 VIOSS / GR80 VIOSS: probit analysis; for GR80 VIOSS: dose for 80 percent growth reduction; for pest or weed control at 35 g/ha / pest or weed control at 70 g/ha / pest or weed control at 140 g/ha: Viola tricolor, post-emergence, 504 h; for pest or weed control at 35 g/ha: 35 g ai/ha; for pest or weed control at 70 g/ha: 70 g ai/ha; for pest or weed control at 140 g/ha: 140 g ai/ha
In short: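 GR20, GR50, GR80 and GR90 come from probit analysis of visual injury scores (0 = none, 100 = complete kill) taken 21 d after treatment. Foliar application was by track sprayer delivering 187 L/ha at five rates, from high down to 1/16×, onto greenhouse plants at the 2–3 leaf stage, with solvent-blank controls.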

[2] = tested on: test plant species in Direct Seeded Rice; assay: Postemergence herbicidal activity in direct seeded rice (Table 13); type: in vivo; details: for GR50 BRAPP / GR80 BRAPP / GR50 CYPSS / GR80 CYPSS / GR50 ECHSS / GR80 ECHSS / GR50 LEFSS / GR80 LEFSS / GR20 ORYSS / GR50 SCPJU / GR80 SCPJU / GR50 SEBEX / GR80 SEBEX: probit analysis; for GR20 ORYSS: ORYSS: Oryza sativa (crop); for pest or weed control at 35 g/ha / pest or weed control at 70 g/ha: post-emergence, 504 h; for pest or weed control at 35 g/ha: 35 g ai/ha; for pest or weed control at 70 g/ha: 70 g ai/ha
Excerpt: Seeds or nutlets of the desired test plant species were planted in a soil matrix prepared by mixing a loam soil (43 percent silt, 19 percent clay, and 38 percent sand, with a pH of about 8.1 and an organic matter content of about 1.5 percent) and river sand in an 80 to 20 ratio. The soil matrix was contained in plastic pots with a surface area of 139.7 cm^2. When required to ensure good germination and healthy plants, a fungicide treatment and/or other chemical or physical treatment was applied. The plants were grown for 10-17 d in a greenhouse with an approximate 14-h photoperiod which was maintained at about 29° C. during the day and 26° C. during the night. Nutrients and water were added on a regular basis and supplemental lighting was provided with overhead metal halide 1000-Watt lamps as necessary. The plants were employed for testing when they reached the second or third true leaf stage. A weighed amount, determined by the highest rate to be tested, of each test compound was placed in 25 mL glass vials and dissolved in a volume of 97:3 v/v acetone-DMSO to obtain 12× stock solutions. […] The concentrated stock solutions were added to the spray solutions so that the final acetone and DMSO concentrations were 16.2% and 0.5%, respectively. Spray solutions were diluted to the appropriate final concentrations with the addition of 10 mL of an aqueous mixture of 1.5% (v/v) Agri-dex crop oil concentrate. […] Compound requirements are based upon a 12 mL application volume at a rate of 187 L/ha. Formulated compounds were applied to the plant material with an overhead Mandel track sprayer equipped with […] nozzles calibrated to deliver 187 L/ha over an application area of 0.503 square meters (m^2) at a spray height of 18 inches (43 cm) above average plant canopy height. Control plants were sprayed in the same manner with the solvent blank. The treated plants and control plants were placed in a greenhouse as described above and watered by sub-irrigation to prevent wash-off of the test compounds. After 20-22 days, the condition of the test plants, compared with that of the untreated plants, was determined visually and scored on a scale of 0 to 100 percent where 0 corresponds to no injury and 100 corresponds to complete kill. By applying the well-accepted probit analysis as described by J. Berkson in Journal of the American Statistical Society, 48, 565 (1953) and by D. Finney in “Probit Analysis” Cambridge University Press (1952), the above data can be used to calculate GR20, GR50, GR80 and GR90 values, which are defined as growth reduction factors that correspond to the effective dose of herbicide required to kill or control 20 percent, 50 percent, 80 percent or 90 percent, respectively, of a target plant.

[3] = Table 8, post-emergent, 21 d, read-out: Visual Growth Reduction (%) 21 Days After Application VIOSS
[4] = BRAPP: broadleaf signalgrass, Brachiaria platyphylla
[5] = CYPSS: sedge (Cyperus difformis, esculentus, iria)
[6] = ECHSS: barnyardgrass (Echinochloa crus-galli), junglerice (Echinochloa colonum)
[7] = LEFSS: sprangletop (Leptochloa chinensis, Leptochloa dubia)
[8] = SCPJU: Japanese bulrush, Scirpus juncoides
[9] = SEBEX: hemp sesbania, Sesbania exaltata
[10] = BRAPP: broadleaf signalgrass, Brachiaria platyphylla, read-out: Visual Growth Reduction (%) 21 Days After Application BRAPP
[11] = CYPSS: sedge (Cyperus difformis, esculentus, iria), read-out: Visual Growth Reduction (%) 21 Days After Application CYPSS
[12] = ECHSS: barnyardgrass (Echinochloa crus-galli), junglerice (Echinochloa colonum), read-out: Visual Growth Reduction (%) 21 Days After Application ECHSS
[13] = LEFSS: sprangletop (Leptochloa chinensis, Leptochloa dubia), read-out: Visual Growth Reduction (%) 21 Days After Application LEFSS
[14] = ORYSS: Oryza sativa, read-out: Visual Growth Reduction (%) 21 Days After Application ORYSS
[15] = SCPJU: Japanese bulrush, Scirpus juncoides, read-out: Visual Growth Reduction (%) 21 Days After Application SCPJU
[16] = SEBEX: hemp sesbania, Sesbania exaltata, read-out: Visual Growth Reduction (%) 21 Days After Application SEBEX
[17] = 21 days after application, read-out: Visual Gorowth Reduction (%) 21 days After Application VIOSS

## COC(=O)c1nc(-c2ccc(C#N)c(F)c2)c(F)c(N)c1Cl [Compound 135, methyl 4-amino-3-chloro-6-(4-cyano-3-fluorophenyl)-5-fluoropicolinate]
[1]; Table 8, 21 d
  GR50 VIOSS: 23 g ai/ha
  GR80 VIOSS: >140 g ai/ha
[1]; [3]
  pest or weed control at 35 g/ha: 60 to 74%
  pest or weed control at 70 g/ha: 60 to 74%
  pest or weed control at 140 g/ha: 75 to 84%
[2]; [4]
  GR50 BRAPP: 4 g ai/ha
  GR80 BRAPP: 11 g ai/ha
[2]; [5]
  GR50 CYPSS: 5 g ai/ha
  GR80 CYPSS: 49 g ai/ha
[2]; [6]
  GR50 ECHSS: 17 g ai/ha
  GR80 ECHSS: 70 g ai/ha
[2]; [7]
  GR50 LEFSS: 57 g ai/ha
  GR80 LEFSS: 114 g ai/ha
[2]
  GR20 ORYSS: >70 g ai/ha
[2]; [8]
  GR50 SCPJU: 2 g ai/ha
  GR80 SCPJU: 5 g ai/ha
[2]; [9]
  GR50 SEBEX: 1 g ai/ha
  GR80 SEBEX: 1 g ai/ha
[2]; [10]
  pest or weed control at 35 g/ha: 85 to 94%
  pest or weed control at 70 g/ha: 85 to 94%
[2]; [11]
  pest or weed control at 35 g/ha: 75 to 84%
  pest or weed control at 70 g/ha: 85 to 94%
[2]; [12]
  pest or weed control at 35 g/ha: 75 to 84%
  pest or weed control at 70 g/ha: 75 to 84%
[2]; [13]
  pest or weed control at 35 g/ha: 0 to 29%
  pest or weed control at 70 g/ha: 60 to 74%
[2]; [14]
  pest or weed control at 35 g/ha: 0 to 29%
  pest or weed control at 70 g/ha: 0 to 29%
[2]; [15]
  pest or weed control at 35 g/ha: 85 to 94%
  pest or weed control at 70 g/ha: 95 to 100%
[2]; [16]
  pest or weed control at 35 g/ha: 95 to 100%
  pest or weed control at 70 g/ha: 95 to 100%

## C=Cc1c(C(=O)O)nc(-c2ccc(C(F)(F)F)c(F)c2)c(F)c1N [Compound 86]
[1]; [17]
  pest or weed control at 35 g/ha: 60 to 74%
  pest or weed control at 70 g/ha: 60 to 74%
[1]; 21 days after application
  GR50 VIOSS: 21 g ai/ha
  GR80 VIOSS: 77 g ai/ha

## COc1c(N)nc(-c2ccc(I)c(F)c2)nc1C(=O)O [Compound 37, 6-Amino-2-(3-fluoro-4-iodophenyl)-5-methoxypyrimidine-4-carboxylic acid]
[1]; Table 8, 21 d
  GR50 VIOSS: 12 g ai/ha
  GR80 VIOSS: 35 g ai/ha
[1]; [3]
  pest or weed control at 35 g/ha: 75 to 84%
  pest or weed control at 70 g/ha: 85 to 94%

## Nc1cc(-c2ccc(I)cc2F)nc(C(=O)O)c1Cl [Compound 124]
[1]; Table 8, 21 d
  GR50 VIOSS: 24 g ai/ha
  GR80 VIOSS: 49 g ai/ha
[1]; [3]
  pest or weed control at 35 g/ha: 60 to 74%
  pest or weed control at 70 g/ha: 95 to 100%
[2]; [4]
  GR50 BRAPP: 4 g ai/ha
  GR80 BRAPP: 8 g ai/ha
[2]; [5]
  GR50 CYPSS: 1 g ai/ha
  GR80 CYPSS: 1 g ai/ha
[2]; [6]
  GR50 ECHSS: 2 g ai/ha
  GR80 ECHSS: 6 g ai/ha
[2]; [7]
  GR50 LEFSS: 7 g ai/ha
  GR80 LEFSS: 16 g ai/ha
[2]
  GR20 ORYSS: 1 g ai/ha
[2]; [8]
  GR50 SCPJU: 1 g ai/ha
  GR80 SCPJU: 1 g ai/ha
[2]; [9]
  GR50 SEBEX: 1 g ai/ha
  GR80 SEBEX: 1 g ai/ha
[2]; [10]
  pest or weed control at 35 g/ha: 95 to 100%
  pest or weed control at 70 g/ha: 95 to 100%
[2]; [11]
  pest or weed control at 35 g/ha: 95 to 100%
  pest or weed control at 70 g/ha: 95 to 100%
[2]; [12]
  pest or weed control at 35 g/ha: 95 to 100%
  pest or weed control at 70 g/ha: 95 to 100%
[2]; [13]
  pest or weed control at 35 g/ha: 95 to 100%
  pest or weed control at 70 g/ha: 95 to 100%
[2]; [14]
  pest or weed control at 35 g/ha: 60 to 74%
  pest or weed control at 70 g/ha: 85 to 94%
[2]; [15]
  pest or weed control at 35 g/ha: 95 to 100%
  pest or weed control at 70 g/ha: 95 to 100%
[2]; [16]
  pest or weed control at 35 g/ha: 95 to 100%
  pest or weed control at 70 g/ha: 95 to 100%

## Nc1c(Cl)c(C(=O)O)nc(-c2ccc(Br)c(F)c2)c1Cl [Compound 43, 4-Amino-6-(4-bromo-3-fluorophenyl)-3,5-dichloropicolinic acid]
[1]; Table 8, 21 d
  GR50 VIOSS: 37 g ai/ha
  GR80 VIOSS: >140 g ai/ha
[1]; [3]
  pest or weed control at 35 g/ha: 45 to 59%
  pest or weed control at 70 g/ha: 60 to 74%

## COC(=O)c1nc(-c2ccc(Br)c(F)c2)nc(N)c1OC [Compound 171, Methyl 6-amino-2-(4-bromo-3-fluorophenyl)-5-methoxypyrimidine-4-carboxylate]
[1]; Table 8, 21 d
  GR50 VIOSS: 5 g ai/ha
  GR80 VIOSS: 10 g ai/ha
[1]; [3]
  pest or weed control at 35 g/ha: 95 to 100%
  pest or weed control at 70 g/ha: 95 to 100%

## COC(=O)c1nc(-c2ccc(I)c(F)c2)nc(N)c1OC [Compound 27, Methyl 6-amino-2-(3-fluoro-4-iodophenyl)-5-methoxypyrimidine-4-carboxylate]
[1]; Table 8, 21 d
  GR50 VIOSS: 8 g ai/ha
  GR80 VIOSS: 27 g ai/ha
[1]; [3]
  pest or weed control at 35 g/ha: 75 to 84%
  pest or weed control at 70 g/ha: 95 to 100%

## Nc1c(F)c(-c2cc(F)c(I)cc2F)nc(C(=O)O)c1Cl [Compound 69]
[1]; [17]
  pest or weed control at 35 g/ha: 85 to 94%
  pest or weed control at 70 g/ha: 95 to 100%
[1]; 21 days after application
  GR50 VIOSS: 3 g ai/ha
  GR80 VIOSS: 8 g ai/ha

## Nc1c(Cl)c(C(=O)O)nc(-c2ccc(I)c(F)c2)c1Cl [Compound 145, 4-Amino-3,5-dichloro-6-(3-fluoro-4-iodophenyl)picolinic acid]
[1]; Table 8, 21 d
  GR50 VIOSS: >140 g ai/ha
  GR80 VIOSS: >140 g ai/ha
[1]; [3]
  pest or weed control at 35 g/ha: 0 to 29%
  pest or weed control at 70 g/ha: 0 to 29%
  pest or weed control at 140 g/ha: 30 to 44%

From patent US9113629B2, “4-amino-6-(4-substituted-phenyl)-picolinates and 6-amino-2-(4-substituted-phenyl)-pyrimidine-4-carboxylates and their use as herbicides” (DOW AGROSCIENCES LLC, priority 2013, dated 2015)
